Measurements from patent publication US8541460B2, “PDK-1/Akt signaling inhibitors” (The Ohio State University, priority 2003, dated 2013).
Read-outs that look alike come from different tables or passages of the source.

Tests used:
[1] = molecular target: T1, recombinant PDK-1 (Homo sapiens, UniProt O15530); experiment: PDK-1 kinase activity (Upstate kit, cell-free); type: biochemical
T1 construct: purchased Upstate (Lake Placid, N.Y.)
T1 sequence (O15530 1-556): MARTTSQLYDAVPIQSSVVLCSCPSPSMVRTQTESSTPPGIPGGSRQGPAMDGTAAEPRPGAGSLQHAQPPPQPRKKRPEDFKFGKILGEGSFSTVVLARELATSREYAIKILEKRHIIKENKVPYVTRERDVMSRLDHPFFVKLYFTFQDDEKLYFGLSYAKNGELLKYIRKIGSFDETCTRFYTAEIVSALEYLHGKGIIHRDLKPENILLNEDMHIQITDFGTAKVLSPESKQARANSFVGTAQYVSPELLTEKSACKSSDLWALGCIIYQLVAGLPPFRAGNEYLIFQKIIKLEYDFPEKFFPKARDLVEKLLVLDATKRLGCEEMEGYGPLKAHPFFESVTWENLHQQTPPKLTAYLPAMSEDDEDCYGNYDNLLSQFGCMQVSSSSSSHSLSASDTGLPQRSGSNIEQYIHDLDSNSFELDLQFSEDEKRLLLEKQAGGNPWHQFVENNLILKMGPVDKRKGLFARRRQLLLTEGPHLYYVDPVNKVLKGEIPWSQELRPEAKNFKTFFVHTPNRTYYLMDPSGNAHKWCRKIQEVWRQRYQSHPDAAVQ
Description: PDK-1 kinase activity This in vitro assay was performed using a PDK-1 kinase assay kit (Upstate, Lake Placid, N.Y.) according to the vendor's instructions. This cell-free assay is based on the ability of recombinant PDK-1, in the presence of DMSO vehicle or the test agent, to activate its downstream kinase serum- and glucocorticoid-regulated kinase (SGK.) which, in turn, phosphorylates the Akt/SGK-specific peptide substrate RPRAATF with [γ-^32]-ATP. […] The reported values represent the means of two independent determinations.

[2] = test system: PC-3 cells; experiment: PC-3 cell viability analysis (MTT); type: cell-based, human
Description: Cell Culture PC-3 (p53−/−) human androgen-nonresponsive prostate cancer cells were purchased from the American […] (Manassas, Va.). Cells were cultured in RPMI 1640 medium (Gibco, Grand Island, N.Y.) supplemented with 10% fetal bovine serum (FBS; Gibco) at 37° C. in a humidified incubator containing 5% CO2.
Cell viability analysis The effect of 4-[5-(4-methylphenyl)-3-(trifluoromethyl)-1H-pyrazol-1-yl]benzenesulfonamide and its derivatives on PC-3 cell viability was assessed by using the MTT {[3-(4,5-dimethylthiazol-2-yl)-2,5-diphenyl-2H-tetrazolium bromide]} assay in six replicates. Cells were grown in 10% FBS-supplemented RPMI 1640 medium in 96-well, flat bottomed plates for 24 h, and were exposed to various concentrations of compounds 1-36 dissolved in DMSO (final concentration≦0.1%) in 1% serum-containing RPMI 1640 medium for different time intervals. Controls received DMSO vehicle at a concentration equal to that in drug-treated cells. The medium was removed, replaced by 200 μl of 0.5 mg/ml of MTT in 10% FBS-containing RPMI-1640 medium, and cells were incubated in the CO2 incubator at 37° C. for 2 h. Supernatants were removed from the wells, and the reduced MTT dye was solubilized in 200 μL/well DMSO. Absorbance at 570 nm was determined on a plate reader.

[3] = test system: phospho-473Ser Akt; experiment: Western blot of Akt and phospho-Akt in PC-3 cells; type: cell-based, human; details: 5 μM and above
Description: Immunoblotting. The general procedure for the Western blot analysis of Akt and phospho-Akt is described as follows. Cells were washed in PBS, resuspended in SDS sample buffer sonicated by an ultrasonic sonicator for 5 sec, and boiled for 5 min. After brief centrifugation, equivalent protein concentrations from the soluble fractions were resolved in 10% SDS-polyacrylamide gels on a Minigel apparatus, and transferred to a nitrocellulose membrane using a semi-dry transfer cell. The transblotted membrane was washed three times with TBS containing 0.05% Tween 20 (TBST). After blocking with TBST containing 5% nonfat milk for 60 min., the membrane was incubated with the primary antibody at 1:1,000 dilution in TBST-5% low fat milk at 4° C. for 12 h, and was then washed three times with TBST. The membrane was probed with goat anti-rabbit IgG-HRP conjugates (1:1,000) for 1 h at room temperature, and was washed with TBST three times. The immunoblots were visualized by enhanced chemiluminescence.

[4] = test system: Akt; experiment: Immunoprecipitated Akt kinase assay, drug-treated PC-3 cells (intracellular Akt activation); type: cell-based; details: Homo sapiens, PC-3 cells treated 2 h, read-out: IC50 for inhibiting intracellular Akt activation
Description: Immunoprecipitated Akt kinase assay Akt immunoprecipitation was carried out according to a modified, published procedure. PC-3 cells were treated with DMSO vehicle or the test agents at the indicated concentrations for 2 h and then lysed at 4° C. for 1 h in buffer A containing 50 mM Tris-HCl, pH 7.5, 1% Triton X-100, 1 mM EDTA, 1 mM EGTA, 50 mM sodium fluoride, 10 mM sodium β-glycerophosphate. 0.1% 2-mercaptoethanol, 0.1 mM phenylmethylsiilfonyl fluoride, and 1 μg/mL each of aprotinin, pepstatin, and leupeptin. Cell lysates were centrifuged at 10,000 g for 5 min, and the supernatant was treated with anti-Akt at 4° C. for 60 min., followed by protein G-agarose beads for additional 60 min. The immunoprecipitate was used to analyze Akt kinase activity by using the Akt/SGK-specific peptide substrate RPRAATF as described above. Values represented the means of two independent determinations.

[5] = test system: immunoprecipitated Akt; experiment: Direct inhibition of immunoprecipitated Akt kinase activity; type: biochemical, human
[6] = inhibiting recombinant PDK-1 kinase activity, read-out: IC50 PDK-1
[7] = inducing apoptotic death in PC-3 cells / PC-3 cell viability, read-out: IC50 PC-3

| Compound | IC50 [1, 6] [µM] | IC50 [2, 7] [µM] | other results |
| --- | --- | --- | --- |
| 4-[5-(4′triflouromethyl[1,1′-biphenyl]-4-yl)-3-(trifluoromethyl)-1H-1-yl]benzenesulfonamide [Compound 51] | 18 | 8 | – |
| O/N=C/c1ccc(-n2nc(C(F)(F)F)cc2-c2ccc3c(ccc4ccccc43)c2)cc1 [Compound 65, 4-5[-(2-Phenanthrenyl)-3-(trifluoromethyl)-1H-pyraxol-1-yl]-benzaldehyde oxime] | – | – | IC50 [1]: 25 µM |
| NS(=O)(=O)c1ccc(-n2nc(C(F)(F)F)cc2-c2ccc3c(ccc4ccccc43)c2)cc1 [Compound 59, 4-[5-(2-phenanthrenyl)-3-(trifluoromethyl)-1H-1-yl]benzenesulfonamide] | – | – | IC50 ([2]; Homo sapiens, PC-3, 24 h, 1% FBS-containing RPMI 1640 medium, read-out: dose required to induce 50% PC-3 cell death): 5 µM; IC50 ([2]; Homo sapiens, inducing apoptotic death in PC-3 cells / PC-3 cell viability, read-out: IC50 PC-3): 5 µM; Akt dephosphorylation (Western blot) [3]: significant Akt dephosphorylation; IC50 [4]: 5 µM; direct inhibitory effect on immunoprecipitated Akt activity [5]: Neither compound 59 nor other the other compounds displayed a direct inhibitory effect |
| 5-(2-Phenanthrenyl)-3-(trifluoromethyl)-4-(1H-tetrazol-5-ylmethylphenyl)-1H-pyrazole [Compound 69] | 45 | 27 | – |
| 5-(2-Phenanthrenyl)-3-(trifluoromethyl)-4-(1H-tetrazol-5-ylphenyl)-1H-pyrazole [Compound 64] | 52 | 32 | – |
